Data reported in PubChem BioAssay AID1845202 (Molecular Pharmacology Branch, DTP, NCI, 2023).

Test system: DMS 114 tumor spheroids, viability % test/control
Experiment: Anticancer human tumor DMS 114 cell line growth inhibition;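 note: spheroids exposed to compounds for 7 days before read-out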;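 for viability, T/C: luminescence used as a proxy for viable cells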
Details: spheroids with HUVEC and MSC; for IC50: curve of first compound; for viability, T/C: stronger effect = lower value
From the text: Multicellular complex tumor spheroid response to DNA repair inhibitors in combination with DNA-damaging drugs
This study explores the anticancer activities of DNA-damaging drugs and inhibitors of DNA damage repair, both as single agents and in combinations. Complex tumor spheroids comprised of malignant cells, endothelial cells and mesenchymal stem cells served as an in vitro model for human solid tumors. This model system incorporates physiologically relevant features and patient-derived or established malignant cell lines with clinically relevant genetic alterations from many tumor types. Twenty-six patient-derived or established malignant cell lines were evaluated representing sarcoma, melanoma, small cell lung cancer (SCLC), non-small cell lung cancer (NSCLC), as well as bladder, ovarian and pancreatic cancers. The concentration ranges selected for each drug and investigational agent were based upon clinically achievable concentrations if the clinical Cmax of the agent was known.
Compounds. The drugs and compounds olaparib (NSC753686), talazoparib (NSC767125), berzosertib (NSC777718), elimusertib (NSC800525), nedisertib (NSC802822), VX-984 (NSC792969), AZD-1390 (NSC803789), temozolomide (NSC362856), topotecan (NSC609699), trabectedin (NSC813783), staurosporine (NSC755774), and gemcitabine (NSC613327) were obtained from the National Cancer Institute (NCI) Developmental Therapeutics Program Chemical Repository. The FDA-approved anticancer drug set is available from the Developmental Therapeutics Program at https://dtp.cancer.gov/organization/dscb/obtaining/available_plates.htm. […] The stock solutions were prepared in dimethyl sulfoxide (DMSO, Sigma-Aldrich, St. Louis, MO, cat. D2650) at 400-fold the tested concentration and stored at -70 degrees C. Prior to their use, the stock solutions were diluted in fresh medium and the final DMSO concentration in the assay was 0.25% (v/v). All drugs and investigational agents were tested over a range starting from a high concentration at or near the clinical Cmax and decreasing in half-log increments. If the clinical Cmax for an agent had not been determined, the highest concentration tested was 10 microM.
Cell Lines. The patient-derived cancer cell (PDC) lines: 156681-154-R-J1-PDC, 283228-195-R-J1-PDC, 287954-098-R-J1-PDC, 292921-168-R-J2-PDC, 349418-098-R-PDC, 425362-245-T-J1-PDC, 556581-035-R-J1-PDC, and BL0293-F563-PDC were received from the NCI Patient-Derived Models Repository (PDMR, https://pdmr.cancer.gov). The established cell lines HS-SY-2 (RRID:CVCL_8719), MPNST, and SYO-1 (RRID:CVCL_7146) were obtained from the Sloan Kettering Institute. The alveolar soft parts sarcoma cell line ASPS-1 (RRID:CVCL_S738) was established at the NCI and grown from internal seed stocks. The following established cell lines were purchased from the American Type Culture Collection (ATCC, Manassas, VA): G-401 (ATCC, cat. CRL-1441, RRID:CVCL_0270), SW982 (ATCC, cat. HTB-93, RRID:CVCL_1734), VA-ES-BJ (ATCC, cat. CRL-2138, RRID:CVCL_1785), NCI-H719 (ATCC, cat. CRL-5837, RRID:CVCL_1582), NCI-H196 (ATCC, cat. CRL-5823, RRID:CVCL_1509), NCI-H841 (ATCC, cat. CRL-5845, RRID:CVCL_1595), NCI-H1618 (ATCC, cat. CRL-5879, RRID:CVCL_1480), NCI-H1876 (ATCC, cat. CRL-5902, RRID:CVCL_1503), DMS 114 (ATCC, cat. CRL-2066; RRID:CVCL_1174), NCI-H211 (ATCC, cat. CRL-5824; RRID:CVCL_1529), and SW 1271 (ATCC, cat. CRL-2177, RRID:CVCL_1716). The small cell lung cancer cell line COR-L88 was purchased from Sigma-Aldrich (cat. 92031917-1VL, RRID:CVCL_1141). The non-small cell lung cancer cell lines NCI-H226 (RRID:CVCL_1544) and NCI-H322M (RRID:CVCL_1557) were established at the NCI and grown from internal seed stocks. Pooled donor human umbilical vein endothelial cells (HUVEC, Lonza, cat. CC-2519) and human mesenchymal stem cells (hMSC, Lonza, cat. PT-2501) were purchased from Lonza (Walkersville, MD).
Cell Culture. All cells were maintained in an incubator at 37 degrees C and 5% CO2 with 95% humidity. […]

SMILES: Cn1ncnc1[C@H]1c2n[nH]c(=O)c3cc(F)cc(c23)N[C@@H]1c1ccc(F)cc1 + Cn1nnc2c(C(N)=O)ncn2c1=O
- IC50 (second compound 1 µM): 696 nM
- IC50 (second compound 3.16 µM): 646 nM
- IC50 (second compound 10 µM): 208 nM
- IC50 (second compound 31.6 µM): < 9.49 nM
- IC50 (second compound 100 µM): < 9.49 nM
- viability, T/C (second compound 1 µM, first compound 0.00949 µM): 106%
- viability, T/C (second compound 1 µM, first compound 0.03 µM): 107%
- viability, T/C (second compound 1 µM, first compound 0.0949 µM): 98.8%
- viability, T/C (second compound 1 µM, first compound 0.3 µM): 82.6%
- viability, T/C (second compound 1 µM, first compound 0.949 µM): 37.9%
- viability, T/C (second compound 1 µM, first compound 3 µM): 11.6%
- viability, T/C (second compound 3.16 µM, first compound 0.00949 µM): 112%
- viability, T/C (second compound 3.16 µM, first compound 0.03 µM): 107%
- viability, T/C (second compound 3.16 µM, first compound 0.0949 µM): 97.2%
- viability, T/C (second compound 3.16 µM, first compound 0.3 µM): 77.2%
- viability, T/C (second compound 3.16 µM, first compound 0.949 µM): 36%
- viability, T/C (second compound 3.16 µM, first compound 3 µM): 14%
- viability, T/C (second compound 10 µM, first compound 0.00949 µM): 111%
- viability, T/C (second compound 10 µM, first compound 0.03 µM): 82.7%
- viability, T/C (second compound 10 µM, first compound 0.0949 µM): 65.8%
- viability, T/C (second compound 10 µM, first compound 0.3 µM): 43.4%
- viability, T/C (second compound 10 µM, first compound 0.949 µM): 27.1%
- viability, T/C (second compound 10 µM, first compound 3 µM): 16.2%
- viability, T/C (second compound 31.6 µM, first compound 0.00949 µM): 51.5%
- viability, T/C (second compound 31.6 µM, first compound 0.03 µM): 39.3%
- viability, T/C (second compound 31.6 µM, first compound 0.0949 µM): 32.4%
- viability, T/C (second compound 31.6 µM, first compound 0.3 µM): 27.6%
- viability, T/C (second compound 31.6 µM, first compound 0.949 µM): 20.7%
- viability, T/C (second compound 31.6 µM, first compound 3 µM): 10.8%
- viability, T/C (second compound 100 µM, first compound 0.00949 µM): 24.1%
- viability, T/C (second compound 100 µM, first compound 0.03 µM): 23.1%
- viability, T/C (second compound 100 µM, first compound 0.0949 µM): 22.3%
- viability, T/C (second compound 100 µM, first compound 0.3 µM): 19.4%
- viability, T/C (second compound 100 µM, first compound 0.949 µM): 14.9%
- viability, T/C (second compound 100 µM, first compound 3 µM): 9.45%

SMILES: CC(C)n1c(=O)n(C)c2cnc3cc(F)c(-c4ccc(OCCCN5CCCCC5)nc4)cc3c21 + CC[C@@]1(O)C(=O)OCc2c1cc1n(c2=O)Cc2cc3c(CN(C)C)c(O)ccc3nc2-1
- IC50 (second compound 0.003 µM): 1950 nM
- IC50 (second compound 0.00949 µM): < 31.6 nM
- IC50 (second compound 0.03 µM): < 31.6 nM
- IC50 (second compound 0.0949 µM): < 31.6 nM
- IC50 (second compound 0.3 µM): < 31.6 nM
- viability, T/C (second compound 0.003 µM, first compound 0.0316 µM): 75.1%
- viability, T/C (second compound 0.003 µM, first compound 0.1 µM): 72.8%
- viability, T/C (second compound 0.003 µM, first compound 0.316 µM): 63.4%
- viability, T/C (second compound 0.003 µM, first compound 1 µM): 61.1%
- viability, T/C (second compound 0.003 µM, first compound 3.16 µM): 43.5%
- viability, T/C (second compound 0.003 µM, first compound 10 µM): 16.7%
- viability, T/C (second compound 0.00949 µM, first compound 0.0316 µM): 37.9%
- viability, T/C (second compound 0.00949 µM, first compound 0.1 µM): 37.9%
- viability, T/C (second compound 0.00949 µM, first compound 0.316 µM): 33.3%
- viability, T/C (second compound 0.00949 µM, first compound 1 µM): 31.3%
- viability, T/C (second compound 0.00949 µM, first compound 3.16 µM): 25%
- viability, T/C (second compound 0.00949 µM, first compound 10 µM): 10.4%
- viability, T/C (second compound 0.03 µM, first compound 0.0316 µM): 24.7%
- viability, T/C (second compound 0.03 µM, first compound 0.1 µM): 24.6%
- viability, T/C (second compound 0.03 µM, first compound 0.316 µM): 23.9%
- viability, T/C (second compound 0.03 µM, first compound 1 µM): 20.2%
- viability, T/C (second compound 0.03 µM, first compound 3.16 µM): 18.2%
- viability, T/C (second compound 0.03 µM, first compound 10 µM): 9.25%
- viability, T/C (second compound 0.0949 µM, first compound 0.0316 µM): 13.6%
- viability, T/C (second compound 0.0949 µM, first compound 0.1 µM): 15.6%
- viability, T/C (second compound 0.0949 µM, first compound 0.316 µM): 11.3%
- viability, T/C (second compound 0.0949 µM, first compound 1 µM): 14.2%
- viability, T/C (second compound 0.0949 µM, first compound 3.16 µM): 11.2%
- viability, T/C (second compound 0.0949 µM, first compound 10 µM): 7.13%
- viability, T/C (second compound 0.3 µM, first compound 0.0316 µM): 9.95%
- viability, T/C (second compound 0.3 µM, first compound 0.1 µM): 9.05%
- viability, T/C (second compound 0.3 µM, first compound 0.316 µM): 9.41%
- viability, T/C (second compound 0.3 µM, first compound 1 µM): 9.97%
- viability, T/C (second compound 0.3 µM, first compound 3.16 µM): 8.36%
- viability, T/C (second compound 0.3 µM, first compound 10 µM): 6.56%
